Data set [1] deals with rat primary cerebellar neurons (CBN). Description: Neurite length of cerebellar neurons in in vitro hypoxia condition. Type of data set: cell-based. Particulars: hypoxia 24 hours, then treatment for additional 24 hrs. As for the experimental part:
To generate hypoxia condition as a SCI model in vitro, rat primary cerebellar neurons (CBN) were isolated from P3 pubs and plated on the PLL/Laminin coated well plate. After 3 days culture, the cells were incubated in hypoxia gas chamber (95% N2 and 5% 02) for 24 hours and then the cells were treated with Rm-PgP and PgP without rolipram. Cells treated with free rolipram dissolved in DMSO were used as a positive control and cells maintained under normal atmospheric conditions were used as a negative control. The cells were incubated an additional 24 hrs in hypoxia condition and then fixed for neurite length evaluation. The neurite lengths were measured using ImageJ software program after β-3 tubulin staining.

Data set [2] can be described thus: Sirolimus and heparin loading in PgP micelles. As to conditions: 0.45 μm filter. Type of data set: physicochemical. The procedure:
50 μl Hep-F (20 mg/ml) was added into PgP solution, followed by two more hours stirring. Methanol was allowed to evaporate overnight, and the solution was centrifuged at 15,000×RCF for 15 minutes. Supernatant containing unbound Hep-F was removed and the precipitated nanoparticle was collected, resuspended and then filtered using 0.45 μm sterile syringe filter to remove unloaded SR. The amount of Hep-F binding to PgP was measured using Hep-F standard curve. Fluorescence was measured using a microplate reader (Excitation: 494 nm Emission: 521 nm, Biotek, VT, USA). Loading efficiency for Hep was calculated as % loading efficiency=(amount of Hep bound to PgP/amount of Hep added to PgP)×100.
Sr-PgP-Hep was prepared sequential loading of SR and Hep in PgP. Briefly, SR solution (LC labs, USA) was loaded in the PgP using solvent evaporation method and Hep was added into SR-PgP solution. […] The amount of SR loaded in PgP micelles solution was measured by High Pressure Liquid Chromatography (HPLC) (Waters Corporation, USA) using SR standard curve prepared in acetonitrile (ACN). […] The loading efficiency was calculated as: % loading efficiency=amount of SR loaded/amount of SR added ×100. The amount of Hep bound to PgP was determined based on Hep-F loading as described above.

As for `COc1ccc(C2CNC(=O)C2)cc1OC1CCCC1` (centres unmarked) [free Rm, rolipram], the “neurite length compared with normoxia” value in data set [1] is recorded as “not significantly different”.
For the compound `CO[C@H]1C[C@@H]2CC[C@@H](C)[C@@](O)(O2)C(=O)C(=O)N2CCCC[C@H]2C(=O)O[C@H]([C@H](C)C[C@@H]2CC[C@@H](O)[C@H](OC)C2)CC(=O)[C@H](C)/C=C(\C)[C@@H](O)[C@@H](OC)C(=O)[C@H](C)C[C@H](C)/C=C/C=C/C=C/1C` [sirolimus], in data set [2], the “SR added in water without PgP, detection by HPLC after filtration” value was “not detected”.
